Where “and” joins values, the source holds several entries; their conditions need not be identical. Equal entries are not always repeated.
Molecular target: Transforming acidic coiled-coil-containing protein 3 (Homo sapiens) (UniProt Q9Y6A5)
Test: ARNT/TACC3 interaction disruptors, potency, confirmation, biochemical, AlphaScreen, cherry-picked samples (AID 651703);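 note: TACC3 partner is the GST-tagged E629A mutant dimer; hits lower the signal meaning they disrupt ARNT binding to TACC3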
Conditions: AlphaScreen His-ARNT PAS-B / GST-TACC3 binding, luminescence

Row | Compound | AC50
1 | CCC(COC)Oc1cc(NCc2ccccc2)c2ncn(C(C)C)c2c1 (stereo unspecified) | 23.9 µM
2 | c1ccc(-c2cn3c(n2)CCc2ccc4cccnc4c2-3)cc1 | 21.2 µM
3 | O=C(Nc1nc(-c2ccccn2)cs1)C12CC3CC(CC(O)(C3)C1)C2 | 6.45 µM
4 | Cc1ccc(C(=O)Nc2nc(-c3ccccn3)cs2)cc1S(=O)(=O)N1CCOCC1 | 2.37 µM
5 | O=S(=O)(N[C@@H]1CC[C@H](CCn2cc(-c3ccccn3)nn2)O[C@H]1CO)c1cccc(Cl)c1 | 22 µM
6 | O=C(N/N=C/c1cc(Br)ccc1OC(=O)c1ccc(Br)cc1)c1ccncc1 | 4.24 µM
7 | COc1cccc(/C=N/NC(=O)CNC(=O)c2ccncc2)c1O | 64.8 µM
8 | Cc1ccc(/C=N/Nc2cn[nH]c(=O)n2)o1 | 26.3 µM
9 | O=C(CSc1n[nH]c(-c2ccccn2)n1)Nc1ccc(F)cc1 | 1.09 µM
10 | COc1cc(CNCc2ccccn2)ccc1OCc1ccc(Cl)cc1Cl | 36.6 µM
11 | COc1cc2c(c(OC)c1OC)-c1ccc(O)c(=O)cc1[C@@H](N)CC2 | 29.7 µM
12 | O=C(CSc1ccc(-c2ccccn2)nn1)NC1CCCCC1 | 2.56 µM
13 | COc1cccc(/C=N/Nc2ccnc(=O)[nH]2)c1O | 9.05 µM
14 | O=C(Cc1ccccc1)Nc1nnc(-c2ccco2)o1 | 56.9 µM
15 | CC(C)C1Cc2c(sc3ncnc(NN)c23)CO1 (stereo unspecified) | 7.67 µM
16 | O=C(N/N=C/c1cc(Cl)ccc1O)c1cccnc1 | 7.68 µM
17 | COc1ccc(NC(=O)CSc2nnc(-c3ccccn3)n2N)cc1 | 13.2 µM
18 | O=C(c1ccco1)[C@@H]1[C@@H]2C(=O)N(c3ccccc3)C(=O)[C@@H]2C2c3ccccc3C=CN21 (stereo partly specified) | 45.9 µM
19 | Cc1[nH][nH]c(=O)c1C(c1ccc(-c2ccc(C(=O)O)cc2)o1)c1c(C)[nH][nH]c1=O | 64.1 µM
20 | Oc1c(CN2CCCCC2)cc(Br)c2cccnc12 | 0.995 µM
21 | CN1CCN(C(c2ccccn2)c2cc(Cl)c3cccnc3c2O)CC1 (stereo unspecified) | 3.98 µM
22 | Cc1nc2ccccc2c(=O)n1/N=C/c1ccc(O)c(O)c1O | 25.9 µM
23 | COc1ccc(S(=O)(=O)N2CCOC2CNC(=O)C(=O)NCCCn2ccnc2)cc1OC (stereo unspecified) | 22.4 µM

Row | Compound | AC50
24 | Cc1ccccc1C(=O)Nc1nnc(-c2ccco2)o1 | 43.1 µM
25 | Cn1c(-c2ccccc2)cnc1Nc1nc(-c2ccccn2)nnc1-c1ccccc1 | 2.26 µM
26 | CCCC(=O)NC(c1ccco1)c1cc([N+](=O)[O-])c2cccnc2c1O (stereo unspecified) | 8.21 µM
27 | COc1cccc(/C=N/NC(=O)c2ccc3nc[nH]c3c2)c1O | 23.3 µM
28 | C[C@@H]1CCCCO[C@@H](CN(C)C(=O)Nc2cccc3ccccc23)[C@H](C)CN([C@@H](C)CO)C(=O)c2cc(NS(=O)(=O)c3cn(C)cn3)ccc2O1 | 56.4 µM
29 | O=C(COC(=O)c1ccc(O)cc1O)Nc1nnc(-c2ccccc2)o1 | 13.7 µM
30 | CC(=O)NC(c1ccc(Cl)cc1Cl)c1ccc2cccnc2c1O (stereo unspecified) | 5.14 µM
31 | O=S(=O)(c1ccccc1)N1C[C@H]2[C@@H](c3ccccc31)[C@@H](CO)N2Cc1ccccn1 | 52.3 µM
32 | O=C(N/N=C(\c1ccccc1)c1cccnc1)c1cccc(F)c1 | 21.7 µM
33 | CCOC(=O)c1cnc(Nc2nc3ccccc3o2)nc1CN1CCN(C)CC1 | 6.81 µM
34 | CCC(=O)NC(c1ccc(C)cc1)c1cc([N+](=O)[O-])c2cccnc2c1O (stereo unspecified) | 3.54 µM
35 | COc1cc(CCNC2=CC(=O)c3ncccc3C2=O)ccc1O | 34.8 µM
36 | O=C(N/N=C/c1cccc2nccnc12)c1ccccc1O | 4.77 µM
37 | O=C(N/N=C/c1cc(Cl)cc(Cl)c1O)c1ccncc1 | 3.58 µM
38 | O=C(CSc1nnc(-c2ccccn2)o1)Nc1ccccc1F | 13 µM
39 | C[C@@H]1CN([C@H](C)CO)C(=O)c2cc(NC(=O)Nc3ccc(C(F)(F)F)cc3)ccc2O[C@@H](C)CCCCO[C@@H]1CN(C)Cc1ccc2c(c1)OCO2 | 38.1 µM
40 | O=c1[nH][nH]c(=O)c2nc(Nc3ccccc3)ncc12 | 66.1 µM
41 | CCC(C)Nc1nc(-c2ccccn2)nc2ccccc12 (stereo unspecified) | 8.57 µM
42 | O=C(CN1C(=O)C2CCCCC2C1=O)Nc1nc(-c2ccccn2)cs1 (stereo unspecified) | 5.15 µM
43 | c1ccc(-c2nnc(-c3ccccn3)nn2)nc1 | 28.8 µM
44 | O=C(NCCCn1ccnc1)C(=O)NCC1OCCN1S(=O)(=O)c1ccc(Cl)cc1 (stereo unspecified) | 10.8 µM
45 | O=S(=O)(N[C@@H]1CC[C@@H](CCn2cc(-c3ccccn3)nn2)O[C@H]1CO)c1cccc(F)c1 | 21.5 µM
46 | C[C@]12CC[C@H](O)CC1=CCC1C2CC[C@@]2(C)C1CC[C@@H]2NC(=O)[C@@H](N)Cc1cnc[nH]1 (stereo partly specified) | 28.3 µM

Row | Compound | AC50
47 | c1ccc(-c2nnc(-c3ccccn3)nc2Nc2cnc3ccccc3n2)cc1 | < 0.5 µM
48 | O=C(N[C@H]1CC[C@@H](CCn2cc(-c3ccccn3)nn2)O[C@H]1CO)c1ccccc1 | 12.1 µM
49 | Nc1nc(-c2ccccn2)nc(N)c1Cc1ccc(Cl)cc1Cl | 2.6 µM
50 | O=C(NN=Cc1c(O)ccc2ccccc12)c1ccncc1 | 9.94 µM
51 | CC1=C(SCc2ccccc2)C(=O)c2ccccc2C1=O | 39.7 µM
52 | O=C(Nc1ccc(F)cc1)c1nc[nH]c1C(=O)O | 14.3 µM
53 | O=S(=O)(N[C@@H]1CC[C@@H](CCn2cc(-c3ccccn3)nn2)O[C@@H]1CO)c1cccc(Cl)c1 | 27.2 µM
54 | c1ccc(-c2cn(C[C@H]3CC[C@H](Cn4cc(-c5ccccn5)nn4)O3)nn2)nc1 | < 0.5 µM
55 | O=C(Nc1nnc(-c2cccs2)o1)c1ccc(S(=O)(=O)N2CCOCC2)cc1 | 17.1 µM
56 | CC(C)COCc1ccc(O)c2ncccc12 | 3.53 µM
57 | CSc1ccccc1NC(=O)CN(C)C(=O)COc1cccc2cccnc12 | 13.8 µM
58 | O=S(=O)(N[C@H]1CC[C@@H](CCn2cc(-c3ccccn3)nn2)O[C@@H]1CO)c1cccc(Cl)c1 | 16.9 µM
59 | Oc1ccc(CN2CCC(Cc3ccccc3)CC2)c2cccnc12 | 2.48 µM
60 | CN(Cc1ccccc1)CC(O)COc1ccc(CNCc2nccn2C)cc1 (stereo unspecified) | 47.9 µM
61 | Oc1cc(Nc2ccncc2)cc2cccnc12 | 0.676 µM
62 | Cc1ccc(Nc2nc(-c3ccccn3)nnc2-c2ccccc2)cn1 | < 0.5 µM
63 | O=C(O)CCNc1cc(N2CCN(C(=O)c3ccco3)CC2)c2noc3c2c1C(=O)c1ccccc1-3 | 14.9 µM
64 | O=C(Nc1nnc(-c2ccncc2)o1)c1ccccc1 | 18.8 µM
65 | Cc1ccccc1Nc1nc(N)nc(CN(C)Cc2ccccc2Cl)n1 | 53.5 µM
66 | C[C@@H]1CN([C@H](C)CO)C(=O)c2cc(NC(=O)Nc3ccc(C(F)(F)F)cc3)ccc2O[C@@H](C)CCCCO[C@H]1CN(C)Cc1ccc2c(c1)OCO2 | 64.9 µM
67 | Clc1cccc(CNc2nc(-c3ccccn3)nnc2-c2ccccc2)c1 | 1.05 µM
68 | COc1ccc(Cc2nnc(N/N=C/c3ccccc3O)[nH]c2=O)cc1OC | 1.42 µM
69 | Cc1nc2ccccc2n1CC(=O)c1ccc(O)c(O)c1 | 49.8 µM

Row | Compound | AC50
70 | COc1ccc(C(=O)Nc2nnc(C3=COCCO3)o2)cc1 | 24.9 µM
71 | c1ccc(-c2nnc(-c3ccccn3)nc2N2CCC(c3ccccc3)C2)cc1 (stereo unspecified) | 4.75 µM
72 | c1ccc(CNc2nc(-c3ccccn3)nnc2-c2ccccc2)cc1 | < 0.5 µM
73 | Nc1ccccc1C(=O)N=Nc1[nH]c(N)c2ccccc12 | 10.3 µM
74 | CC(=O)N1CCc2[nH]c3ccc(C)cc3c2C1 | 13.9 µM
75 | CN(C)S(=O)(=O)c1cccc(NC(=O)CSc2cccc3cccnc23)c1 | 5.76 µM
76 | CNc1nc(C(=O)O)nc(N2CCOCC2)n1 | 11.6 µM
77 | O=C(CC(=O)N/N=C/c1ccccc1O)NCc1cccnc1 | 32.8 µM
78 | Cc1nnc(-c2ccccc2)c(=O)n1/N=C/c1c(O)ccc2ccccc12 | 49.2 µM
79 | O=C(N[C@H]1CC[C@H](CCn2cc(-c3ccccn3)nn2)O[C@@H]1CO)c1ccncc1 | 14.8 µM
80 | O=C(NCCCn1ccnc1)Nc1cccc(Cl)c1 | 9.64 µM
81 | O=C(N[C@@H]1CC[C@@H](CCn2cc(-c3ccccn3)nn2)O[C@H]1CO)c1ccc(F)cc1 | 10.2 µM
82 | c1ccc(C2=Nn3c(nnc3-c3ccccn3)SC2)cc1 | 64.9 µM
83 | CO[C@@H]1CN(C)C(=O)c2cc(NS(=O)(=O)CC(F)(F)F)ccc2OC[C@@H](C)N(C(=O)c2ccc3c(c2)OCO3)C[C@@H]1C | 58 µM
84 | CN(CC(=O)O)Cc1nc2ccccc2[nH]1 | 7.77 µM
85 | CC1CCCN(S(=O)(=O)c2ccc(C(=O)Nc3nnc(C4CC4)o3)cc2)C1 (stereo unspecified) | 31.9 µM
86 | COC(=O)C1=COC(C)C2CN3CCc4c([nH]c5cc(OC)c(OC)cc45)C3CC12 (stereo unspecified) | 67.6 µM
87 | O=S(=O)(c1ccc(Br)cc1)c1nc(-c2ccco2)oc1NCCCn1ccnc1 | 33.9 µM
88 | O=[N+]([O-])c1cccc(/C=N/Nc2nc(NCc3ccccc3)nc(N3CCOCC3)n2)c1O | 2.29 µM
89 | O=S(=O)(c1ccccc1)N1C[C@@H]2[C@H](c3ccccc31)[C@H](CO)N2Cc1ccccn1 | 61.5 µM
90 | CCOc1cc(/C=C2\SC(=N)N(c3nccs3)C2=O)ccc1OCCN1CCOCC1 | 35 µM
91 | CCOC(=O)N1CCN(C(c2cccnc2)c2ccc3cccnc3c2O)CC1 (stereo unspecified) | 4.64 µM
92 | Oc1ccc(/C=N/Nc2ccc(Cl)nn2)c(O)c1O | 0.702 µM

Row | Compound | AC50
93 | CC(C)(C)CCNc1nc(-c2ccccn2)nnc1-c1ccccc1 | 0.717 µM and < 0.5 µM
94 | CC1(c2ccccc2)NC(=O)N(CC(=O)Nc2nc(-c3ccccn3)cs2)C1=O (stereo unspecified) | 6.64 µM
95 | Nc1ccc2nc(-c3ccccn3)[nH]c2c1 | 10.1 µM
96 | Cc1ccc(C)c(NC(=O)CSc2n[nH]c(-c3ccccn3)n2)c1 | 0.574 µM
97 | CCCC(=O)NC(c1ccccc1)c1ccc2cccnc2c1O (stereo unspecified) | 4.6 µM
98 | CNc1ccc2nc3ccccc3[n+](C)c2c1 | 29.9 µM
99 | O=S(=O)(c1cccc2cccnc12)N1CCN(Cc2ccc(OCCO)cc2)CC1 | 48.2 µM
100 | Cc1cccc(NC(=O)CSc2cccc3cccnc23)c1 | 21.8 µM
101 | Cc1c(C(=O)N(C)C)sc2nc(-c3ccccn3)[nH]c(=O)c12 | 2.78 µM
102 | O=C(Cn1cnc([N+](=O)[O-])n1)N/N=C/c1ccc(O)cc1O | 4.97 µM
103 | Cc1ccccc1Nc1nnc(SCC(=O)NC(=O)NCc2ccco2)s1 | 71.2 µM
104 | O=C(O)c1ncn(Cc2ccccc2)c1C(=O)O | 13.8 µM
105 | Nc1nnc2c(n1)CCCC2 | 4.63 µM
106 | O=C(N[C@H]1CC[C@@H](CCn2cc(-c3ccccn3)nn2)O[C@@H]1CO)c1cccnc1 | 9.19 µM
107 | Oc1c(C(c2ccc(Cl)cc2)N2CCCC2)cc(Cl)c2cccnc12 (stereo unspecified) | 1.36 µM
108 | O=C(Cn1cncn1)N/N=C/c1cc([N+](=O)[O-])ccc1O | 4.04 µM
109 | O=C(NNc1ccccn1)C(=O)NNS(=O)(=O)c1ccc(F)cc1 | 15.5 µM
110 | Cc1csc(NC(=O)CSc2ccc(-c3ccccn3)nn2)n1 | 3.14 µM
111 | Cc1ccsc1C(=O)Nc1nnc(-c2ccco2)o1 | 9.04 µM

Source: PubChem BioAssay AID651703 (Broad Institute, 2012)
